Test results reported in patent publication US6852707B1, “Remedies for hyperammonemia” (Suntory Limited, priority 1998, dated 2005).

Experiments:
[1] = use against hyperammonemia; cited from earlier work
[2] = system: rats feeding on high-protein diet; assay: Effects of xylobiose on rats feeding on high-protein diet (Example 2); assay type: in vivo, rat
Method: SD Male rats in a growth stage (15 heads) were fed on a high-protein feed (containing 50% casein) and divided in three groups; the first group consisting of 5 rats were administered 0.5% xylobiose; the second group also consisting of 5 rats were administered 1.0% xylobiose; the third was a control group consisting of 5 rats which were administered distilled water; the animals were let to drink these liquids ad libitum for 3 weeks. Throughout the test period, there were no effects on the amounts of feed and water taken by the rats and the increase in their body weight. The cumulative uptake was 4.7±0.2 g for 0.5% xylobiose and 7.5±0.6 g for 1.0% xylobiose; the daily uptake by the two groups was 0.24 g and 0.37 g, respectively.
At the end of the test, blood was sampled from the rats and the blood ammonia level was measured.

[3] = gastric acid, digestive enzymes (Okazaki et al. 1991, 1992); cited from earlier work

Compound | documented side effects [1] | effects on amounts of feed and water taken and increase in body weight ([2]; 0.5% and 1.0% xylobiose, throughout the 3-week test period) | blood ammonia level versus control group ([2]; 0.5% xylobiose in drinking water ad libitum for 3 weeks) | blood ammonia level versus control group ([2]; 1.0% xylobiose in drinking water ad libitum for 3 weeks, p<0.05) | stability in the digestive tract [3]
NC[C@@H]1O[C@H](O[C@H]2[C@@H](O)[C@H](O[C@@H]3[C@@H](O)[C@H](N)C[C@H](N)[C@H]3O[C@H]3O[C@H](CN)[C@@H](O)[C@H](O)[C@H]3N)O[C@@H]2CO)[C@H](N)[C@@H](O)[C@@H]1O [neomycin] | renal disorder and deafness |  |  |  | 
OC1OC[C@@H](O[C@@H]2OC[C@@H](O)[C@H](O)[C@H]2O)[C@H](O)[C@H]1O (some centres unmarked) [xylobiose] |  | no effects | lower than the value for the control group | significantly low | can reach the large intestine without being decomposed with gastric acid or digestive enzymes
